Measurements: ChEMBL document CHEMBL1687772, “Lysyl-phosphatidylglycerol attenuates membrane perturbation rather than surface association of the cationic antimicrobial peptide 6W-RP-1 in a model membrane system: implications for daptomycin resistance” (Antimicrob Agents Chemother, 2010)
Activity calls are given as the source filed them. The calls are words filed in the database; no cut-off is given here.

Columns and labels:
Lipid bilayer [1] = experiment: Binding affinity to POPG:POPC:lysyl-DOPG:7MC-POPE unilamellar lipid vesicle with <30 mol% of lysyl-DOPG at 0.5 uM by FRET assay
Lipid bilayer [2] = experiment: Binding affinity to POPG:POPC:lysyl-DOPG:7MC-POPE unilamellar lipid vesicle with >30 mol% of lysyl-DOPG at 0.5 uM by FRET assay

## H-ALYKKWKKKLLKSLKRLG-OH
Lipid bilayer [1]
  Activity: Active
Lipid bilayer [2]
  Activity: inactive
